Measurements: paper PMC12362618, “Development of the First Small-Molecule Inhibitor Targeting Oncostatin M for Treatment of Breast Cancer” (Journal of Medicinal Chemistry, 2025)
Several values for one entry are separate records, joined by “and”; a condition that tells them apart may be missing. Identical values can stand only once. Entries after “also recorded” stand apart in the source; their conditions may differ.

Experiments:
OSM = biological target: T1, OSM (Homo sapiens, UniProt P13725); test: Fluorescence quenching assay of SMI binding to OSM; conditions: average of three independent replicates, errors at 95% confidence level, read-out: KD (OSM-SMI dissociation constant)
T1 sequence (P13725 26-252): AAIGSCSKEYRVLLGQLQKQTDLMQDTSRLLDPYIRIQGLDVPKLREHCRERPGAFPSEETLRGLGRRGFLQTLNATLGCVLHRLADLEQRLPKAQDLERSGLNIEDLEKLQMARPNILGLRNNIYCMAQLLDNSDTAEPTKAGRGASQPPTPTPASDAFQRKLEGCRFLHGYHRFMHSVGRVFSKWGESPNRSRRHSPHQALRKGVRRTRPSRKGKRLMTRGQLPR
Protocol: To perform fluorescence quenching assays, 2 mL of 1 μM OSM solution in polymethylmethacrylate cuvettes was prepared by dilution of a concentrated stock solution of recombinant OSM with buffer solution (100 mM sodium chloride, 50 mM sodium phosphate, 50 mM freshly added DTT, pH = 6.6). Cuvettes were titrated with 5 μL increments of a 1 mM small molecule stock solution in DMSO, with a cuvette titrated with an equivalent volume of DMSO as a control. […] In cases where little to no significant quenching was observed, the titration was supplemented with 2.5 μL increments of a 10 mM small molecule stock solution to increase the concentration delivered. The fluorescence intensity measurements were obtained on a Cary Eclipse spectrofluorometer equipped with a Xenon arc lamp. Fluorescence intensities were measured by exciting at 280 nm (4 nm slit width) and recording the emission from 345 to 355 nm with a photomultiplier tube voltage of 700 V, unless otherwise noted. Each titration point was normalized to OSM’s native fluorescence intensity, corrected by adding the decrease in fluorescence intensity caused by dilution with DMSO, and the average value of the three replicates for each point was plotted against concentration of small molecule delivered and fit to a modified Stern–Volmer function as described by Charlier and Plapp. Binding affinity (K D) values were obtained […] from the fitting routine. All curve-fitting analysis was performed in GraphPad Prism 8.0.

[1] = tested on: OSM-mediated signaling (pSTAT3, pAKT, pJNK, pERK) in T47D cells; test: Immunoblot of OSM-mediated signaling in T47D cells; assay type: cell-based, human; conditions: SMI 10 μM, OSM 10 ng/mL, 30 min
Protocol: For immunoblot analysis, T47D breast cancer cells were treated and collected in the same manner as described above for the ELISA preparation. After lysate collection, samples were run on a 10% SDS-PAGE gel and transferred to a nitrocellulose membrane via semidry transfer. Blots were rinsed with DI H2O and allowed to completely dry at room temperature before blocking with LiCor Intercept PBS Blocking Buffer (LiCor, Lincoln, NE; Cat# 927-90001) for 1 h. After blocking, primary antibodies (1:1000) suspended in blocking buffer supplemented with 0.1% Tween were added, shaken at room temperature for 1 h, and stored at 4 °C overnight. Membranes were then washed 6 times for 5 minutes each with 1X PBS supplemented with 0.5% Tween while shaking at room temperature, and secondary antibodies (1:15,000) were applied and incubated for 1 h. Afterward, membranes were washed as previously described above and imaged at 700 nm using the LiCor Odyssey CLx Imaging System. Quantification of immunoblots was performed using the LiCor Image Studio software, normalizing to β-Actin, and calculating relative fold change compared to nontreated samples. Antibodies used included phospho-STAT3 (Y705) (Cell Signaling Technology, Danvers, MA; cat. no. 9145), phospho-AKT (S473) (Cell Signaling Technology, Danvers, MA; cat. no. 4060), phospho-JNK ([…]/[…]) (Cell Signaling Technology, Danvers, MA; cat. no. 4668), phospho-ERK (T202/Y204) (Cell Signaling Technology, Danvers, MA; cat. no. 9101), β-Actin (Cell Signaling Technology; cat. no. 3700), and donkey antirabbit IRDye 800CW (LiCor, Lincoln, NE; Cat# 925-32213).

15N OSM = biological target: T2, 15N OSM (Homo sapiens, UniProt P13725); test: 1H,15N HSQC NMR chemical shift perturbation titration; assay type: binding; conditions: 100 μM 15N OSM; residues Asp87, Gln90, Arg91, Leu92 at or near site III
T2 construct: ^15N-isotope-labeled OSM^1-187 protein was titrated individually with each of the SMIs; made in house
T2 sequence (P13725 26-212): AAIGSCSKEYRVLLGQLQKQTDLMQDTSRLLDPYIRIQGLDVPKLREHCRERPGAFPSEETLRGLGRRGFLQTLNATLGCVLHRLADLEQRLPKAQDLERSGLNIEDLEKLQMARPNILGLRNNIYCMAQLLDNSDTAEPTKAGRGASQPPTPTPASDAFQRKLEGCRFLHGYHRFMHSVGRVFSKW
Protocol: Protein was prepared and chemical shift perturbation (CSP) experiments were conducted as previously described by Mass et al. For SMI inhibitor titration studies, in a 5 mm NMR tube, 600 μL of a 100 μM sample of ^15N OSM in NMR buffer (50 mM sodium phosphate (pH 6.6), 100 mM sodium chloride, and 5% D2O) was titrated with a 20 mM stock solution of SMI in d6-dimethyl sulfoxide. The SMI stock solutions were added in 0.75–4 μL increments to a final concentration of 260 μM (SMI-10B) or 200 μM (SMI-10B13) and final volumes of 636 μL (SMI-10B) and 614.25 μL (SMI-10B13). Titration points for SMI-10B were: 0, 20, 40, 60, 80, 100, 140, 180, 220, and 260 μM. Titration points for SMI-10B13 were: 0, 0.5, 1.0, 6.0, 10, 20, 30, 40, 50, 60, and 200 μM.

[2] = tested on: T47D and MCF-7 human breast cancer cells; test: MTS cell viability assay; assay type: cell-based; conditions: T47D and MCF-7; 100 μM to 0.1 nM, 24 h
Protocol: Cell viability was assessed using the CellTiter 96 AQueous One Solution Cell Proliferation Assay (Promega, cat. no. G3580), following the manufacturer’s instructions. Briefly, T47D and MCF-7 human breast cancer cells were seeded in 96-well plates at a density of 10,000 cells/well in 100 μL of complete growth medium and allowed to adhere overnight. Cells were then treated with a serial dilution (100 μM to 0.1 nM) of SMI-10B, SMI-10B13, Temozolomide (positive control), or vehicle (DMSO) for 24 h. Following treatment, 20 μL of MTS reagent was added directly to each well, and plates were incubated at 37 °C in a humidified incubator with 5% CO2 and imaged after 1 h of incubation. Absorbance was measured at 490 nm by using a microplate reader. Cell viability was expressed as a percentage relative to the vehicle-treated controls, and experiments were performed in triplicate.

SMILES	Kd (OSM)	Inhibition of OSM-mediated signaling cascades by immunoblot (words) [1]	Inhibition of OSM-mediated signaling cascades by immunoblot (words) ([1]; listed as 10B)	Chemical shift perturbation of 15N OSM on titration (15N OSM)	Cytotoxicity / cell viability via MTS assay [2]
O=C(O)/C=C/c1cc(-c2ccc3c(c2)OCO3)c(-c2ccc3c(c2)OCO3)o1 [SMI-10B, (E)-3-(4,5-Bis(benzo[d][1,3]dioxol-5-yl)furan-2-yl)acrylic acid]	12.9 ± 1.5 µM	significant reductions, near nontreated levels	capable of inhibiting multiple cascades	clear shifts in the fast exchange regime	Minimal toxicity; also recorded: minimal to no cytotoxicity at high concentrations
O=C(O)/C=C/c1cc(-c2ccc3cc[nH]c3c2)c(-c2ccc3cc[nH]c3c2)o1 [SMI-10B13, (E)-3-(4,5-di(1H-Indol-6-yl)furan-2-yl)acrylic Acid]	~7 µM and 6.6 µM	most effective; also recorded: better at inhibiting pSTAT3, pAKT, pJNK, and pERK signaling		binding to the same site as SMI-10B with a higher affinity	Minimal toxicity; also recorded: minimal to no cytotoxicity at high concentrations
